Experimental data from ChEMBL document CHEMBL1201862, “PubChem BioAssay data set” (2004).
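Step 1: Grow cells in 96-well plates. Step 2: Expose to compound for 48 hours at 5 concentrations. Step 3: Interpolate endpoints linearly; if unreached, use highest concentration. GI50 marks 50% less growth.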 Active and inactive are the calls of the source. No stated cut-off is given here; in the data, active = GI50 up to about 1.1 µM and inactive = higher.

Tests used:
Experiment in all cases: NCI anticancer screen, dose series, 48 h
[1] = tested on: SK-MEL-2
[2] = tested on: MCF7
[3] = tested on: SF-295
[4] = tested on: SF-539
[5] = tested on: SK-MEL-28
[6] = tested on: OVCAR-3
[7] = tested on: U-251
[8] = tested on: SN12C
[9] = tested on: MDA-MB-435
[10] = tested on: K562
[11] = tested on: COLO 205
[12] = tested on: TK-10
[13] = tested on: 786-0
[14] = tested on: PC-3
[15] = tested on: SW-620
[16] = tested on: Hs-578T
[17] = tested on: Malme-3M
[18] = tested on: SR
[19] = tested on: MOLT-4
[20] = tested on: UO-31

Structure (SMILES): BrC(Br)=C1C(=C(Br)Br)C(Br)C1Br (stereo not given)
- GI50 [1]: 0.789 µM (active)
- GI50 [2]: 0.193 µM (active)
- GI50 [3]: 0.778 µM (active)
- GI50 [4]: 0.811 µM (active)
- GI50 [5]: 1.1 µM (active)
- GI50 [6]: 0.794 µM (active)
- GI50 [7]: 0.65 µM (active)
- GI50 [8]: 0.716 µM (active)
- GI50 [9]: 0.927 µM (active)
- GI50 [10]: 0.158 µM (active)
- GI50 [11]: 0.849 µM (active)
- GI50 [12]: 0.682 µM (active)
- GI50 [13]: 0.163 µM (active)
- GI50 [14]: 1.62 µM (inactive)
- GI50 [15]: 0.207 µM (active)
- GI50 [16]: 2.51 µM (inactive)
- GI50 [17]: 0.418 µM (active)
- GI50 [18]: 0.043 µM (active)
- GI50 [19]: 0.121 µM (active)
- GI50 [20]: 0.701 µM (active)

Structure (SMILES): C=CCn1c(=O)ccn(/C(=C/C(=O)OCC)C(=O)OCC)c1=O
- GI50 [1]: 15.7 µM (inactive)
- GI50 [2]: 3.94 µM (inactive)
- GI50 [3]: > 52.4 µM (inactive)
- GI50 [4]: 24 µM (inactive)
- GI50 [5]: 15.2 µM (inactive)
- GI50 [6]: 5.66 µM (inactive)
- GI50 [7]: 14.4 µM (inactive)
- GI50 [8]: 8.73 µM (inactive)
- GI50 [9]: 12.8 µM (inactive)
- GI50 [10]: 3.08 µM (inactive)
- GI50 [11]: 1.74 µM (inactive)
- GI50 [12]: 11.9 µM (inactive)
- GI50 [13]: 3.48 µM (inactive)
- GI50 [14]: 14.6 µM (inactive)
- GI50 [15]: 2.18 µM (inactive)
- GI50 [16]: 22.5 µM (inactive)
- GI50 [17]: 11 µM (inactive)
- GI50 [18]: 6.4 µM (inactive)
- GI50 [19]: 2.99 µM (inactive)
- GI50 [20]: 14.9 µM (inactive)

Structure (SMILES): CC(=O)OC(C)(C)[C@H]1O[C@]23O[C@]1(C)C[C@@H](C)[C@@H]2[C@@]1(C)CC[C@@]24C[C@@]25CC[C@H](O[C@@H]2OC[C@@H](O)[C@H](O)[C@H]2O)C(C)(C)[C@@H]5CC[C@H]4[C@]1(C)[C@H]3O
- GI50 [1]: 18.1 µM (inactive)
- GI50 [2]: 5.38 µM (inactive)
- GI50 [3]: 8 µM (inactive)
- GI50 [4]: 4.35 µM (inactive)
- GI50 [5]: 7.08 µM (inactive)
- GI50 [6]: 3.59 µM (inactive)
- GI50 [7]: 6.41 µM (inactive)
- GI50 [8]: 4.41 µM (inactive)
- GI50 [9]: 8.73 µM (inactive)
- GI50 [10]: 4.5 µM (inactive)
- GI50 [11]: 9.12 µM (inactive)
- GI50 [12]: 10 µM (inactive)
- GI50 [13]: 6.38 µM (inactive)
- GI50 [14]: 4.65 µM (inactive)
- GI50 [15]: 4.34 µM (inactive)
- GI50 [16]: 17.4 µM (inactive)
- GI50 [17]: 22.8 µM (inactive)
- GI50 [18]: 3.18 µM (inactive)
- GI50 [19]: 5.32 µM (inactive)
- GI50 [20]: 14.6 µM (inactive)

Structure (SMILES): CC1(C)CC[C@]2(C(=O)O)CC[C@]3(C)[C@H](C(=O)C=C4[C@@]5(C)C=C(C#N)C(=O)C(C)(C)[C@@H]5CC[C@]43C)[C@@H]2C1 [BARDOXOLONE]
- GI50 [1]: 1 µM (active)
- GI50 [2]: 0.265 µM (active)
- GI50 [3]: 0.573 µM (active)
- GI50 [4]: 0.569 µM (active)
- GI50 [5]: 0.16 µM (active)
- GI50 [6]: 0.102 µM (active)
- GI50 [7]: 0.274 µM (active)
- GI50 [8]: 0.493 µM (active)
- GI50 [9]: 0.537 µM (active)
- GI50 [10]: 0.263 µM (active)
- GI50 [11]: 0.215 µM (active)
- GI50 [12]: 0.678 µM (active)
- GI50 [13]: 0.16 µM (active)
- GI50 [14]: 0.311 µM (active)
- GI50 [15]: 0.492 µM (active)
- GI50 [16]: 0.671 µM (active)
- GI50 [17]: 0.224 µM (active)
- GI50 [18]: 0.0561 µM (active)
- GI50 [19]: 0.259 µM (active)
- GI50 [20]: 1.06 µM (active)
